Measurements reported in US9980943B2, “Methods of treating muscular dystrophy” (BOARD OF REGENTS OF THE NEVADA SYSTEM OF HIGHER EDUCATION, …, priority 2013, dated 2018).

Legend:
Type in all cases: cell-based, mouse
[1] = test system: β-galactosidase in CMV-LacZ C2C12 myotubes; assay: CMV-LacZ secondary screen in C2C12 myotubes (β-Gal stabilizing assay); settings: for CMV-LACZ in Myotubes (β-galactosidase activity relative to DMSO): CMV-LacZ C2C12 myotubes, 96-well format; for CMV-LACZ in Myotubes, signal relative to DMSO: C2C12 CMV-LacZ myotubes, fold relative to DMSO
Procedure, shortened: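 Stable CMV-LacZ C2C12 clone; six-point curve 0.5–40 μM; duplicates.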

[2] = test system: α7 integrin (LacZ reporter in α7βgal+/− myoblasts); assay: Myoblast α7+/LacZ integrin FDG assay (Burkin assay in myoblasts, 96-well); settings: α7+/LacZ myoblasts, 96-well; for fold induction at 0.5 µM / fold induction at 1 µM / fold induction at 5 µM / fold induction at 10 µM / fold induction at 20 µM / fold induction at 40 µM: Mus musculus, Myoblast, 48 h, read-out: Burkin Assay in Myoblasts, value relative to DMSO
[3] = test system: α7 integrin (LacZ reporter in α7+/LacZ myotubes); assay: Myotube α7 integrin FDG assay (Burkin assay in myotubes, 96-well); settings: myotubes; for fold induction at 0.5 µM / fold induction at 1 µM / fold induction at 5 µM / fold induction at 10 µM / fold induction at 20 µM / fold induction at 40 µM: Mus musculus, Myotube, read-out: Burkin Assay in Myotubes (signal relative to DMSO)

Compound | CMV-LACZ in Myotubes (β-galactosidase activity relative to DMSO) ([1]; 5 uM) | CMV-LACZ in Myotubes (β-galactosidase activity relative to DMSO) ([1]; 10 uM) | CMV-LACZ in Myotubes (β-galactosidase activity relative to DMSO) ([1]; 20 uM) | CMV-LACZ in Myotubes (β-galactosidase activity relative to DMSO) ([1]; 40 uM) | CMV-LACZ in Myotubes, signal relative to DMSO ([1]; 5 uM) | CMV-LACZ in Myotubes, signal relative to DMSO ([1]; 10 uM) | CMV-LACZ in Myotubes, signal relative to DMSO ([1]; 20 uM) | CMV-LACZ in Myotubes, signal relative to DMSO ([1]; 40 uM) | Burkin Assay in Myoblasts, signal relative to DMSO ([2]; 0.5 uM) | Burkin Assay in Myoblasts, signal relative to DMSO ([2]; 1 uM) | Burkin Assay in Myoblasts, signal relative to DMSO ([2]; 5 uM) | Burkin Assay in Myoblasts, signal relative to DMSO ([2]; 10 uM) | Burkin Assay in Myoblasts, signal relative to DMSO ([2]; 20 uM) | Burkin Assay in Myoblasts, signal relative to DMSO ([2]; 40 uM) | Burkin Assay in Myotubes, α7 integrin LacZ reporter signal relative to DMSO ([3]; 0.5 uM) | Burkin Assay in Myotubes, α7 integrin LacZ reporter signal relative to DMSO ([3]; 1 uM) | Burkin Assay in Myotubes, α7 integrin LacZ reporter signal relative to DMSO ([3]; 5 uM) | Burkin Assay in Myotubes, α7 integrin LacZ reporter signal relative to DMSO ([3]; 10 uM) | Burkin Assay in Myotubes, α7 integrin LacZ reporter signal relative to DMSO ([3]; 20 uM) | Burkin Assay in Myotubes, α7 integrin LacZ reporter signal relative to DMSO ([3]; 40 uM) | also measured
CCc1ccc(N(C(=O)c2snc(C(N)=O)c2N)C(C(=O)NC2CCCC2)c2ccco2)cc1 (stereo not drawn) [MLS001216714-01] | 0.9162 | 0.98 | 1.417 | 3.633 | – | – | – | – | – | – | – | – | – | – | – | – | – | – | – | – | fold induction at 0.5 µM ([2]; 0.5 uM): 1.02; fold induction at 1 µM ([2]; 1 uM): 0.971; fold induction at 5 µM ([2]; 5 uM): 1.04; fold induction at 10 µM ([2]; 10 uM): 1.14; fold induction at 20 µM ([2]; 20 uM): 1.09; fold induction at 40 µM ([2]; 40 uM): 0.274; fold induction at 0.5 µM ([3]; 0.5 uM): 1.03; fold induction at 1 µM ([3]; 1 uM): 1.17; fold induction at 5 µM ([3]; 5 uM): 1.1; fold induction at 10 µM ([3]; 10 uM): 1.32; fold induction at 20 µM ([3]; 20 uM): 0.706; fold induction at 40 µM ([3]; 40 uM): 0.677
Cc1nnc(NC(=O)CSc2nnc(CCNC(=O)c3ccccc3F)n2C)s1 [MLS001217045-01] | 0.9613 | 0.9821 | 0.9272 | 0.9127 | – | – | – | – | – | – | – | – | – | – | – | – | – | – | – | – | Burkin Assay in Myoblasts, value relative to DMSO ([2]; 0.5 uM): 0.881; Burkin Assay in Myoblasts, value relative to DMSO ([2]; 1 uM): 0.9697; Burkin Assay in Myoblasts, value relative to DMSO ([2]; 5 uM): 1.087; Burkin Assay in Myoblasts, value relative to DMSO ([2]; 10 uM): 1.112; Burkin Assay in Myoblasts, value relative to DMSO ([2]; 20 uM): 1.057; Burkin Assay in Myoblasts, value relative to DMSO ([2]; 40 uM): 1.109; Burkin Assay in Myotubes (signal relative to DMSO) ([3]; 0.5 uM): 1.001; Burkin Assay in Myotubes (signal relative to DMSO) ([3]; 1 uM): 1.156; Burkin Assay in Myotubes (signal relative to DMSO) ([3]; 5 uM): 0.94; Burkin Assay in Myotubes (signal relative to DMSO) ([3]; 10 uM): 1.154; Burkin Assay in Myotubes (signal relative to DMSO) ([3]; 20 uM): 1.115; Burkin Assay in Myotubes (signal relative to DMSO) ([3]; 40 uM): 1.051
O=c1[nH]c(C2CCCN(S(=O)(=O)c3ccccc3)C2)nc2c1nnn2Cc1cccc(Cl)c1 (stereo not drawn) [MLS001217286-01] | 0.9599 | 1.227 | 0.3991 | 0.3604 | – | – | – | – | – | – | – | – | – | – | – | – | – | – | – | – | Burkin Assay in Myoblasts, value relative to DMSO ([2]; 0.5 uM): 0.7428; Burkin Assay in Myoblasts, value relative to DMSO ([2]; 1 uM): 0.8506; Burkin Assay in Myoblasts, value relative to DMSO ([2]; 5 uM): 0.7671; Burkin Assay in Myoblasts, value relative to DMSO ([2]; 10 uM): 0.8273; Burkin Assay in Myoblasts, value relative to DMSO ([2]; 20 uM): 1.006; Burkin Assay in Myoblasts, value relative to DMSO ([2]; 40 uM): 1.068; Burkin Assay in Myotubes (signal relative to DMSO) ([3]; 0.5 uM): 0.7617; Burkin Assay in Myotubes (signal relative to DMSO) ([3]; 1 uM): 0.9911; Burkin Assay in Myotubes (signal relative to DMSO) ([3]; 5 uM): 1.193; Burkin Assay in Myotubes (signal relative to DMSO) ([3]; 10 uM): 1.219; Burkin Assay in Myotubes (signal relative to DMSO) ([3]; 20 uM): 1.095; Burkin Assay in Myotubes (signal relative to DMSO) ([3]; 40 uM): 0.5964
CC1CCN(S(=O)(=O)c2ccc(S(=O)(=O)N3CCCC3)cc2)CC1 [MLS001217673-01] | – | – | – | – | 0.936 | 0.9409 | 1.161 | 0.9352 | 0.8494 | 0.8343 | 0.9353 | 0.9256 | 0.8325 | 0.8079 | 0.8894 | 0.749 | 0.9699 | 0.9516 | 1.095 | 1.078 | –
CCCCNC(=O)CN(C(=O)c1snc(C(=O)NC2CCCCC2)c1N)c1ccc(OC)cc1OC [MLS001217697-01] | 1.2 | 0.8647 | 0.764 | 0.7395 | – | – | – | – | – | – | – | – | – | – | – | – | – | – | – | – | fold induction at 0.5 µM ([2]; 0.5 uM): 1.09; fold induction at 1 µM ([2]; 1 uM): 1.12; fold induction at 5 µM ([2]; 5 uM): 1.18; fold induction at 10 µM ([2]; 10 uM): 1.16; fold induction at 20 µM ([2]; 20 uM): 0.883; fold induction at 40 µM ([2]; 40 uM): 1.01; fold induction at 0.5 µM ([3]; 0.5 uM): 1.2; fold induction at 1 µM ([3]; 1 uM): 0.968; fold induction at 5 µM ([3]; 5 uM): 1.16; fold induction at 10 µM ([3]; 10 uM): 1.2; fold induction at 20 µM ([3]; 20 uM): 1.12; fold induction at 40 µM ([3]; 40 uM): 1.12
COc1cc(C(C(=O)NC2CCCCC2)N(C(=O)c2snc(C(N)=O)c2N)c2ccc(C)cc2)ccc1O (stereo not drawn) [MLS001218427-01] | – | – | – | – | 1.209 | 15.1793 | 34.571 | 0.6965 | 0.9466 | 0.9485 | 0.8334 | 0.7663 | 0.2232 | 0.3039 | 0.8052 | 0.7974 | 0.8464 | 0.6054 | 0.3311 | 0.429 | –
COc1ccc(S(=O)(=O)Nc2ccc(S(=O)(=O)Nc3nccs3)cc2)cc1 [MLS001218795-01] | – | – | – | – | 0.9553 | 1.023 | 1.2115 | 0.989 | 1.024 | 0.9596 | 0.8609 | 0.9116 | 0.9353 | 0.9876 | 0.9648 | 0.9363 | 0.9778 | 0.9991 | 0.9463 | 0.9606 | –
Cc1cc(NC(=O)CN2C(=O)/C(=C/c3ccccc3F)SC2=S)no1 [MLS001219159-01] | – | – | – | – | 0.9354 | 0.9316 | 0.9636 | 1.023 | – | – | – | – | – | – | – | – | – | – | – | – | Burkin Assay in Myoblasts, value relative to DMSO ([2]; 0.5 uM): 0.9597; Burkin Assay in Myoblasts, value relative to DMSO ([2]; 1 uM): 1.059; Burkin Assay in Myoblasts, value relative to DMSO ([2]; 5 uM): 0.9161; Burkin Assay in Myoblasts, value relative to DMSO ([2]; 10 uM): 0.9644; Burkin Assay in Myoblasts, value relative to DMSO ([2]; 20 uM): 0.9199; Burkin Assay in Myoblasts, value relative to DMSO ([2]; 40 uM): 0.952; Burkin Assay in Myotubes (signal relative to DMSO) ([3]; 0.5 uM): 0.861; Burkin Assay in Myotubes (signal relative to DMSO) ([3]; 1 uM): 0.9965; Burkin Assay in Myotubes (signal relative to DMSO) ([3]; 5 uM): 0.807; Burkin Assay in Myotubes (signal relative to DMSO) ([3]; 10 uM): 1.064; Burkin Assay in Myotubes (signal relative to DMSO) ([3]; 20 uM): 0.9474; Burkin Assay in Myotubes (signal relative to DMSO) ([3]; 40 uM): 0.9507
Cc1cc(C(=O)Nc2cccc3ccccc23)c(C)o1 [MLS001219345-01] | – | – | – | – | 1.188 | 0.8631 | 1.0075 | 1.0255 | 0.3027 | 1.119 | 1.046 | 1.014 | 0.9807 | 0.9227 | 0.9416 | 0.9889 | 1.078 | 1.0424 | 0.7146 | 0.9232 | –
